# From patent publication US9624200B2, “Therapeutic piperazines” (DART NEUROSCIENCE (CAYMAN) LTD., priority 2006, dated 2017)
# System: PDE4 from human U-937 cells
# Assay: PDE4 Inhibition Assay
# Type: biochemical
# Conditions: 1 μM cAMP, [3H]-cAMP, read-out: Potency Class (Inhibitory Concentration) in the PDE4 assay
# Protocol: PDE4 from human U-937 cells was used (see T. J. Torphy, et al., J. Pharmacol. Exp. Ther., 1992, 263, 1195-1205). Test compound at various concentration and/or vehicle was preincubated with 2 μg/ml enzyme in Tris-HCl buffer pH 7.5 for 15 minutes at 25° C. The reaction was initiated by addition of 1 1 μM cAMP and 0.01 1 μM [^3H]-cAMP for another 20 minute incubation period and terminated at 100° C. The resulting [^3H]-AMP was converted to [^3H]-adenosine by addition of snake venom nucleotidase and separated by AG1-X2 resin. An aliquot was removed and counted to determine the amount of [^3H]-adenosine formed. Results were converted to percent inhibition and IC so determined using XLfit from IDBS (ID Business Solutions Ltd., 2 Occam Court, Surrey Research Park, Guildford, Surrey, GU2 7QB UK).
# Representative compounds of the present invention were tested and found to have significant PDE4 inhibition in this assay.
row,Compound,IC50 [nM]
1,"COc1ccc(N2CCN(C(C)=O)[C@@H](CN3CCc4ccccc4C3)C2)cc1OC1CCCC1 [Compound 253, (S)-1-(4-(3-(cyclopentyloxy)-4-methoxyphenyl)-2-((3,4-dihydroisoquinolin-2(1H)-yl)methyl)piperazin-1-yl)ethanone]",< 200
2,"COc1ccc(N2CCN(C(=O)c3c[nH]c(=O)[nH]3)[C@@H](Cc3ccccc3)C2)cc1OC1CCCC1 [Compound 288, (S)-4-(2-benzyl-4-(3-(cyclopentyloxy)-4-methoxyphenyl)piperazine-1-carbonyl)-1H-imidazol-2(3H)-one]",200 to 1000
3,"COc1ccc(N2CCN(CCC(N)=O)[C@@H](Cc3ccccc3)C2)cc1OC1CCCC1 [Compound 269, (S)-3-(2-benzyl-4-(3-(cyclopentyloxy)-4-methoxyphenyl)piperazin-1-yl)propanamide]",< 200
4,"NC(=O)CN1CCN(c2ccc(OC(F)F)c(OC3CCC3)c2)C[C@@H]1Cc1ccccc1 [Compound 273, (S)-2-(2-benzyl-4-(3-cyclobutoxy-4-(difluoromethoxy)phenyl)piperazin-1-yl)acetamide]",< 200
5,"COc1ccc(N2CCN(CC(N)=O)[C@@H](Cc3ccccc3)C2)cc1OC1CCC1 [Compound 268, (S)-2-(2-benzyl-4-(3-cyclobutoxy-4-methoxyphenyl)piperazin-1-yl)acetamide]",< 200
6,"COc1ccc(N2CCN(C(=O)[C@H]3C[C@H](O)CN3)[C@@H](Cc3ccccc3)C2)cc1OC1CCCC1 [Compound 278, ((S)-2-benzyl-4-(3-(cyclopentyloxy)-4-methoxyphenyl)piperazin-1-yl)((2R,4S)-4-hydroxypyrrolidin-2-yl)methanone]",> 1000
7,"COc1ccc(N2CCN(C(C)=O)[C@@H](CN3Cc4ccccc4C3)C2)cc1OC1CCCC1 [Compound 252, (S)-1-(4-(3-(cyclopentyloxy)-4-methoxyphenyl)-2-(isoindolin-2-ylmethyl)piperazin-1-yl)ethanone]",200 to 1000
8,"COc1ccc(N2CCN(C(=O)C3(O)CCC3)[C@@H](Cc3ccccc3)C2)cc1OC1CCCC1 [Compound 297, (S)-(2-benzyl-4-(3-(cyclopentyloxy)-4-methoxyphenyl)piperazin-1-yl)(1-hydroxycyclobutyl)methanone]",200 to 1000
9,"COc1ccc(N2CCN(C(=O)Cc3ncccn3)[C@@H](Cc3ccccc3)C2)cc1OC1CCC1 [Compound 340, (S)-1-(2-benzyl-4-(3-cyclobutoxy-4-methoxyphenyl)piperazin-1-yl)-2-(pyrimidin-2-yl)ethanone]",< 200
10,"COc1ccc(N2CCN(C(=O)Cc3c[nH]cn3)[C@@H](Cc3ccccc3)C2)cc1OC1CCC1 [Compound 303, (S)-1-(2-benzyl-4-(3-cyclobutoxy-4-methoxyphenyl)piperazin-1-yl)-2-(1H-imidazol-4-yl)ethanone]",< 200
11,"COc1ccc(N2CCN(C(=O)C3(O)CC3)[C@@H](Cc3ccccc3)C2)cc1OC1CCCC1 [Compound 283, (S)-(2-benzyl-4-(3-(cyclopentyloxy)-4-methoxyphenyl)piperazin-1-yl)(1-hydroxycyclopropyl)methanone]",200 to 1000
12,"COc1ccc(N2CCN(C(=O)Cc3cn(C)cn3)[C@@H](CC(C)C)C2)cc1OC1CCC1 [Compound 369, (S)-1-(4-(3-cyclobutoxy-4-methoxyphenyl)-2-isobutylpiperazin-1-yl)-2-(1-methyl-1H-imidazol-4-yl)ethanone]",200 to 1000
13,"COc1ccc(N2CCN(C(=O)Cc3ccco3)[C@@H](Cc3ccccc3)C2)cc1OC1CCC1 [Compound 314, (S)-1-(2-benzyl-4-(3-cyclobutoxy-4-methoxyphenyl)piperazin-1-yl)-2-(furan-2-yl)ethanone]",200 to 1000
14,"CCc1nn(C2CCC2)c2cc(N3CCN(CCC(N)=O)[C@@H](Cc4ccccc4)C3)ccc12 [Compound 276, (S)-3-(2-benzyl-4-(1-cyclobutyl-3-ethyl-1H-indazol-6-yl)piperazin-1-yl)propanamide]",> 1000
15,"COc1ccc(N2CCN(C(=O)C(C)C)[C@@H](Cc3ccccc3)C2)cc1OC1CCCC1 [Compound 243, (S)-1-(2-benzyl-4-(3-(cyclopentyloxy)-4-methoxyphenyl)piperazin-1-yl)-2-methylpropan-1-one]",> 1000
16,"COc1ccc(N2CCN(C(=O)[C@H]3C[C@@H](O)CN3)[C@@H](Cc3ccccc3)C2)cc1OC1CCCC1 [Compound 279, ((S)-2-benzyl-4-(3-(cyclopentyloxy)-4-methoxyphenyl)piperazin-1-yl)((2R,4R)-4-hydroxypyrrolidin-2-yl)methanone]",> 1000
17,"COc1ccc(N2CCN(C(=O)C3CNC(=O)N3)[C@@H](Cc3ccccc3)C2)cc1OC1CCCC1 (stereo partly drawn) [Compound 281, 4-((S)-2-benzyl-4-(3-(cyclopentyloxy)-4-methoxyphenyl)piperazine-1-carbonyl)imidazolidin-2-one]",< 200
18,"O=C(Cc1ncccn1)N1CCN(c2ccc(OC(F)F)c(OC3CCC3)c2)C[C@@H]1Cc1ccccc1 [Compound 356, (S)-1-(2-benzyl-4-(3-cyclobutoxy-4-(difluoromethoxy)phenyl)piperazin-1-yl)-2-(pyrimidin-2-yl)ethanone]",200 to 1000
19,"COc1ccc(N2CCN(C(=O)Cc3ccccn3)[C@@H](Cc3ccccc3)C2)cc1OC1CCC1 [Compound 342, (S)-1-(2-benzyl-4-(3-cyclobutoxy-4-methoxyphenyl)piperazin-1-yl)-2-(pyridin-2-yl)ethanone]",< 200
20,"CNCCC(=O)N1CCN(c2ccc(OC)c(OC3CCC3)c2)C[C@@H]1Cc1ccccc1 [Compound 348, (S)-1-(2-benzyl-4-(3-cyclobutoxy-4-methoxyphenyl)piperazin-1-yl)-3-(methylamino)propan-1-one]",> 1000
21,"COc1ccc(N2CCN(C(=O)C3CCC(=O)N3)[C@@H](Cc3ccccc3)C2)cc1OC1CCCC1 (mixture of isomers) [Compound 285, (S)-5-(2-benzyl-4-(3-(cyclopentyloxy)-4-methoxyphenyl)piperazine-1-carbonyl)pyrrolidin-2-one]",200 to 1000

# Continued, values first:
row,IC50 [nM],Compound
1,< 200,"COc1ccc(N2CCN(C(=O)Cc3n[nH]c(C)n3)[C@@H](Cc3ccccc3)C2)cc1OC(F)F [Compound 346, (S)-1-(2-benzyl-4-(3-(difluoromethoxy)-4-methoxyphenyl)piperazin-1-yl)-2-(5-methyl-1H-1,2,4-triazol-3-yl)ethanone]"
2,> 1000,"COc1ccc(N2CCN(Cc3sc(C)nc3C)[C@@H](Cc3ccccc3)C2)cc1OC1CCCC1 [Compound 359, (S)-5-((2-benzyl-4-(3-(cyclopentyloxy)-4-methoxyphenyl)piperazin-1-yl)methyl)-2,4-dimethylthiazole]"
3,< 200,"COc1ccc(N2CCN(C(=O)Cc3cn(C)cn3)[C@@H](Cc3ccccc3)C2)cc1OC1CCCC1 [Compound 317, (S)-1-(2-benzyl-4-(3-(cyclopentyloxy)-4-methoxyphenyl)piperazin-1-yl)-2-(1-methyl-1H-imidazol-4-yl)ethanone]"
4,200 to 1000,"CC(C)C[C@H]1CN(c2ccc(OC(F)F)c(OCC3CC3)c2)CCN1C(=O)Cc1c[nH]cn1 [Compound 365, (S)-1-(4-(3-(cyclopropylmethoxy)-4-(difluoromethoxy)phenyl)-2-isobutylpiperazin-1-yl)-2-(1H-imidazol-4-yl)ethanone]"
5,200 to 1000,"COc1ccc(N2CCN(C(=O)Cc3ccccn3)[C@@H](Cc3ccccc3)C2)cc1OC(C)C [Compound 341, (S)-1-(2-benzyl-4-(3-isopropoxy-4-methoxyphenyl)piperazin-1-yl)-2-(pyridin-2-yl)ethanone]"
6,> 1000,COc1ccc(N2CCN(Cc3cccc(O)c3)[C@@H](Cc3ccccc3)C2)cc1OC1CCCC1 [Compound 361]
7,< 200,"COc1ccc(N2CCN(C(=O)Cc3ncc[nH]3)[C@@H](Cc3ccccc3)C2)cc1OC1CCCC1 [Compound 301, (S)-1-(2-benzyl-4-(3-(cyclopentyloxy)-4-methoxyphenyl)piperazin-1-yl)-2-(1H-imidazol-2-yl)ethanone]"
8,200 to 1000,"COc1ccc(N2CCN(C(=O)Cc3c[nH]cn3)[C@@H](CC(C)C)C2)cc1OC(C)C [Compound 378, (S)-2-(1H-imidazol-4-yl)-1-(2-isobutyl-4-(3-isopropoxy-4-methoxyphenyl)piperazin-1-yl)ethanone]"
9,200 to 1000,"COc1ccc(N2CCN(C(=O)Cc3cncn3C)[C@@H](Cc3ccccc3)C2)cc1OC1CCCC1 [Compound 318, (S)-1-(2-benzyl-4-(3-(cyclopentyloxy)-4-methoxyphenyl)piperazin-1-yl)-2-(1-methyl-1H-imidazol-5-yl)ethanone]"
10,> 1000,"COc1ccc(N2CCN(C(=O)c3cc[nH]n3)[C@@H](Cc3ccccc3)C2)cc1OC1CCCC1 [Compound 304, (S)-(2-benzyl-4-(3-(cyclopentyloxy)-4-methoxyphenyl)piperazin-1-yl)(1H-pyrazol-3-yl)methanone]"
11,< 200,"COc1ccc(N2CCN(C(=O)Cc3cc[nH]c3)[C@@H](Cc3ccccc3)C2)cc1OC1CCCC1 [Compound 307, (S)-1-(2-benzyl-4-(3-(cyclopentyloxy)-4-methoxyphenyl)piperazin-1-yl)-2-(1H-pyrrol-3-yl)ethanone]"
12,200 to 1000,"COc1ccc(N2CCN(C(=O)CN3CC[C@H](O)C3)[C@@H](Cc3ccccc3)C2)cc1OC1CCCC1 [Compound 319, 1-((S)-2-benzyl-4-(3-(cyclopentyloxy)-4-methoxyphenyl)piperazin-1-yl)-2-((S)-3-hydroxypyrrolidin-1-yl)ethanone]"
